Source: publication PMC2287205 (Analytical and Bioanalytical Chemistry, 2008)

What was measured:
ERα = ERα (Homo sapiens, UniProt P03372); assay type: binding; details: mixture of five estrogenic compounds separated by gradient HPLC (Fig. 7)
[1] = Microsomal incubation with PB-induced rat liver microsomes; details: 100 μM zearalenone, 120 min, 37 °C

Sequence of ERα (P03372 311-547): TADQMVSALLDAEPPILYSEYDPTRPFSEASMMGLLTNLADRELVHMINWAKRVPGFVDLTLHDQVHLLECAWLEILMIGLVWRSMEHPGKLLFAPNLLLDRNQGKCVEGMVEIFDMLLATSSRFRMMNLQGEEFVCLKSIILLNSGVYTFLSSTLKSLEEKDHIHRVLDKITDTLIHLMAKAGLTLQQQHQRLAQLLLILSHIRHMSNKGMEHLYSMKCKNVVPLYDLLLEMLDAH

| Compound | ERα bioaffinity detected in HRS ERα FP trace (ERα) | Metabolism by rat liver microsomes [1] |
| --- | --- | --- |
| O=c1oc2cc(O)ccc2cc1-c1ccc(O)cc1 [coumarol, 7-Hydroxy-3-p-hydroxyphenylcoumarine] | possible to detect the ERα bioaffinities | – |
| C[C@H]1CCCC(=O)CCC/C=C/c2cc(O)cc(O)c2C(=O)O1 [zearalenone] | possible to detect the ERα bioaffinities | metabolized by rat liver microsomes into at least three major metabolites |
